Consider 21 compounds from article PMC11171218, “N-Benzylated 5-Hydroxybenzothiophene-2-carboxamides as Multi-Targeted Clk/Dyrk Inhibitors and Potential Anticancer Agents” (Cancers, 2024).

One series addresses Dyrk1A (Homo sapiens, UniProt Q13627). The experiment in a line: Z'-LYTE kinase inhibition assay, Dyrk1A. It is filed as biochemical. Conditions: for inhibition at 1 µM: read-out: Dyrk1A % Inh. At 1 µM; for IC50: ATP conc. equivalent to Km. From the text: (§1) 3. Experimental procedure for protein kinases and inhibition assays.
(§2) 3.1 The Z ́ -LYTE biochemical assay for screening and IC 50 determination for Clk1, Dyrk1A, Dyrk1B, Clk2 and Clk3 kinases.
(§3) The assay employs a fluorescence-based, coupled-enzyme format and is based on the differential sensitivity of phosphorylated and non-phosphorylated peptides to proteolytic cleavage. The peptide substrate is labeled with two fluorophores-one at each end-that make up a FRET pair. In the primary reaction, the kinase transfers the gamma-phosphate of ATP to a single tyrosine, serine, or threonine residue in a synthetic FRET-peptide. In the secondary reaction, a site-specific protease recognizes and cleaves non-phosphorylated FRET-peptides. Phosphorylation of FRET-peptides suppresses cleavage by the Development Reagent. Cleavage disrupts FRET between the donor (i.e., coumarin) and acceptor (i.e., fluorescein) fluorophores on the FRET-peptide, whereas uncleaved, phosphorylated FRET-peptides maintain FRET. A ratiometric method, which calculates the ratio (the Emission Ratio) of donor emission to acceptor emission after excitation of the donor fluorophore at 400 nm, is used to quantitate reaction progress. Both cleaved and uncleaved FRET-peptides contribute to the fluorescence signals and therefore to the Emission Ratio. The extent of phosphorylation of the FRET-peptide can be calculated from the Emission Ratio. The Emission Ratio will remain low if the FRET-peptide is phosphorylated (i.e., no kinase inhibition) and will be high if the FRET-peptide is non-phosphorylated (i.e., kinase inhibition).
(§4) The IC 50 values were determined for compounds displaying significant % inhibition in the screening step. IC 50 determination was done through testing at a range of concentrations with two […]
(§5) two independent experiments. […]
3.1.2 Dyrk1A kinase assay specific conditions:
The 2x Dyrk1A / Ser/Thr 18 mixture is prepared in 50 mM HEPES pH 7.5, 0.01% BRIJ-35, 10 […]
2 µM Ser/Thr 18 in 50 mM HEPES pH 7.5, 0.01% BRIJ-35, 10 mM MgCl 2, 1 mM EGTA. […]
(§6) Development Reagent A is added. […]
(§7) MgCl2, 1 mM EGTA, 0.02% NaN3. […]

In the next series the target is Dyrk1B (Homo sapiens, UniProt Q9Y463). Put plainly: Z'-LYTE kinase inhibition assay, Dyrk1B. It is filed as biochemical. Conditions: for IC50: ATP conc. equivalent to Km; for inhibition at 1 µM: read-out: Dyrk1B % Inh. At 1 µM.
Sequence of Dyrk1B (Q9Y463 whole entry): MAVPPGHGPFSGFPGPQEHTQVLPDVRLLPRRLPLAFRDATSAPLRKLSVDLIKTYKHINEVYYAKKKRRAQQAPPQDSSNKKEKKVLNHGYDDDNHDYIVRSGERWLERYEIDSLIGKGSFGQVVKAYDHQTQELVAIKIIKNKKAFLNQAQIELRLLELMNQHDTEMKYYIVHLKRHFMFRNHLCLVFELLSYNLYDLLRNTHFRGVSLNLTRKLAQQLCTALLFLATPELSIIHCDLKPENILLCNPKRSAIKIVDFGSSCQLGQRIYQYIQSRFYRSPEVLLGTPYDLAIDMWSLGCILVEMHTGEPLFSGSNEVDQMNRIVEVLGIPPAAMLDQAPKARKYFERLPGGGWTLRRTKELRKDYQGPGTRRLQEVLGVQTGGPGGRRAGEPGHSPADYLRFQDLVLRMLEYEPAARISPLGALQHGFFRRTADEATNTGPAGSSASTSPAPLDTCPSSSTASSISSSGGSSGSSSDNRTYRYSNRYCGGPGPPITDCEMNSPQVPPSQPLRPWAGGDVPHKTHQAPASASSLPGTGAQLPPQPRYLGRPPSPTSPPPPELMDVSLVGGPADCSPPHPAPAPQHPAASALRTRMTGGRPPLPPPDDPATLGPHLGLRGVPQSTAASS
Source text: as §1, §2, §3, §4, §5
3.1.3 Dyrk1B kinase assay specific conditions:
The 2X Dyrk1B / Ser/Thr 18 mixture is prepared in 50 mM HEPES pH 6.5, 0.01% BRIJ-35, 10 […]
mM MgCl2, 1 mM EGTA, 0.02% NaN3.
as §6, §7

A further series addresses Clk1 (Homo sapiens, UniProt P49759). The experiment in a line: Z'-LYTE kinase inhibition assay, Clk1. It is filed as biochemical. Conditions: for IC50: ATP conc. equivalent to Km; for inhibition at 1 µM: read-out: Clk1 % Inh. At 1 µM.
Source text: as §1, §2, §3, §4
two independent experiments.
3.1.1 Clk1 kinase assay specific conditions:
The 2x Clk1 / Ser/Thr 09 mixture is prepared in 50 mM HEPES pH 7.5, 0.01% BRIJ-35, 10 mM MgCl 2, 1 mM EGTA. The final 10 μL kinase reaction consists of 30 - 120 ng Clk1 and 2 μM Ser/Thr 09 in 50 mM HEPES pH 7.5, 0.01% BRIJ-35, 10 mM MgCl 2, 1 mM EGTA. After the 1 h

Molecules are shown by their SMILES.

Sequence of Clk1 (P49759 whole entry): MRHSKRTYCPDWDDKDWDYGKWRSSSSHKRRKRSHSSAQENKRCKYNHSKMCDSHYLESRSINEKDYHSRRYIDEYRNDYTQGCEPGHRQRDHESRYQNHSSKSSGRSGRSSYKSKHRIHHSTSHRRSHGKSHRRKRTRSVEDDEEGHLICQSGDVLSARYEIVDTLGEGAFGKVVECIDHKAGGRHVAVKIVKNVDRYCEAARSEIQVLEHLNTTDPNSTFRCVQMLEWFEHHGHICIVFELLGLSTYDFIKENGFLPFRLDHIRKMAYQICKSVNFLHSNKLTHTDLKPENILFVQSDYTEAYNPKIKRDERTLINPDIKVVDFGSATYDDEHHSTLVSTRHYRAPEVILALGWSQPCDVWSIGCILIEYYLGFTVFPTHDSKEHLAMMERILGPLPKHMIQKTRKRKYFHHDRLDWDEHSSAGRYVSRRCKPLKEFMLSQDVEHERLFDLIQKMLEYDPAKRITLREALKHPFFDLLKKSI

The IC50 is the concentration that inhibits the measured activity by half. `O=C(NCc1ccccc1)c1cc2cc(O)ccc2s1` [Compound 1, N-Benzyl-5-hydroxybenzo[b]thiophene-2-carboxamide]: the values for the inhibition at 1 µM at Dyrk1A, on Dyrk1B and at Clk1 were 46%, 60% and 60%, respectively. In addition, the IC50 at Dyrk1B came to 0.833 µM; on Clk1, 0.74 µM.
For orientation: melting point means the temperature of the solid-liquid transition. The compound `O=C(NCc1ccccc1Cl)c1cc2cc(O)ccc2s1` [Compound 2, N-(2-Chlorobenzyl)-5-hydroxybenzo[b]thiophene-2-carboxamide] registered a melting point of 140.2 to 142 °C. Besides, at Dyrk1A, the IC50 stood at 0.7 µM and the inhibition at 1 µM is 61%. Moreover, at Dyrk1B, the inhibition at 1 µM was determined as 46%. Besides, at Clk1, the IC50 is 0.769 µM and the inhibition at 1 µM was 61%.
`O=C(NCc1ccc(Cl)cc1)c1cc2cc(O)ccc2s1` [Compound 4, N-(4-Chlorobenzyl)-5-hydroxybenzo[b]thiophene-2-carboxamide]: the melting point lay within 182 to 183.7 °C. Besides, the inhibition at 1 µM on Dyrk1A turned out to be 7%. Moreover, the inhibition at 1 µM at Dyrk1B is 0%. Besides, at Clk1, the inhibition at 1 µM is 40%.
The compound `O=C(NCc1ccccc1F)c1cc2cc(O)ccc2s1` [Compound 5, N-(2-Fluorobenzyl)-5-hydroxybenzo[b]thiophene-2-carboxamide] yielded a melting point of 199.8 to 201.7 °C. The inhibition at 1 µM at Dyrk1A was found to be 48%. Further, at Dyrk1B, the IC50 was 0.722 µM and the inhibition at 1 µM worked out at 62%. On Clk1, the IC50 worked out at 0.778 µM and the inhibition at 1 µM came to 63%.
`O=C(NCc1ccc(F)cc1)c1cc2cc(O)ccc2s1` [Compound 7, N-(4-Fluorobenzyl)-5-hydroxybenzo[b]thiophene-2-carboxamide] displayed a melting point of 195 to 197.2 °C. Moreover, on Dyrk1A, the inhibition at 1 µM is 26%. For the same compound, the inhibition at 1 µM on Dyrk1B was 38%. The inhibition at 1 µM at Clk1 stood at 50%.
`Cc1ccccc1CNC(=O)c1cc2cc(O)ccc2s1` [Compound 8, 5-Hydroxy-N-(2-methylbenzyl)benzo[b]thiophene-2-carboxamide]: the melting point fell in the range of 159.1 to 161.2 °C. In addition, at Dyrk1A, the concentration for half-maximal inhibition (IC50) stood at 0.853 µM and the inhibition at 1 µM amounted to 61%. In addition, at Dyrk1B, the inhibition at 1 µM came out at 48%. Moreover, at Clk1, the IC50 was 0.594 µM and the inhibition at 1 µM was 63%.
For `Cc1cccc(CNC(=O)c2cc3cc(O)ccc3s2)c1` [Compound 9, 5-Hydroxy-N-(3-methylbenzyl)benzo[b]thiophene-2-carboxamide], the melting point lay within 176.3 to 178.4 °C. Moreover, on Dyrk1A, the inhibition at 1 µM was 33%. Also, the inhibition at 1 µM on Dyrk1B amounted to 40%. Moreover, at Clk1, the IC50 stood at 0.787 µM and the inhibition at 1 µM turned out to be 61%.
The compound `Cc1ccc(CNC(=O)c2cc3cc(O)ccc3s2)cc1` [Compound 10, 5-Hydroxy-N-(4-methylbenzyl)benzo[b]thiophene-2-carboxamide] came in with a melting point of 186.6 to 187.6 °C. On Dyrk1A, the inhibition at 1 µM was 8%. The inhibition at 1 µM on Dyrk1B is 0%. For the same compound, the inhibition at 1 µM on Clk1 came to 30%.
`COc1ccc(CNC(=O)c2cc3cc(O)ccc3s2)cc1` [Compound 13, 5-Hydroxy-N-(4-methoxybenzyl)benzo[b]thiophene-2-carboxamide] had a melting point of 176.5 to 178 °C. For the same compound, the inhibition at 1 µM at Dyrk1A was determined as 9%. Besides, the inhibition at 1 µM at Dyrk1B was 16%. Moreover, on Clk1, the inhibition at 1 µM stood at 17%.
`O=C(NCc1cc(Cl)cc(Cl)c1)c1cc2cc(O)ccc2s1` [Compound 14, N-(3,5-Dichlorobenzyl)-5-hydroxybenzo[b]thiophene-2-carboxamide] yielded a melting point of 189.4 to 192.1 °C. Further, the inhibition at 1 µM at Dyrk1A came to 41%. Besides, the inhibition at 1 µM at Dyrk1B amounted to 12%. Besides, at Clk1, the IC50 was found to be 0.744 µM and the inhibition at 1 µM amounted to 61%.
`O=C(NCc1cccc(F)c1F)c1cc2cc(O)ccc2s1` [Compound 15, N-(2,3-Difluorobenzyl)-5-hydroxybenzo[b]thiophene-2-carboxamide] registered a melting point of 199.7 to 201.9 °C. Besides, on Dyrk1A, the inhibition at 1 µM was determined as 53%. Further, on Dyrk1B, the IC50 is 0.645 µM and the inhibition at 1 µM is 61%. Besides, on Clk1, the IC50 was 0.779 µM and the inhibition at 1 µM is 61%.
For `O=C(NCc1ccc(F)cc1F)c1cc2cc(O)ccc2s1` [Compound 16, N-(2,4-Difluorobenzyl)-5-hydroxybenzo[b]thiophene-2-carboxamide], the inhibition at 1 µM on Dyrk1A was found to be 40%; at Dyrk1B it was 53%; at Clk1, 50%.
Consider `O=C(NCc1cc(C(F)(F)F)cc(C(F)(F)F)c1)c1cc2cc(O)ccc2s1` [Compound 18, N-(3,5-Bis(trifluoromethyl)benzyl)-5-hydroxybenzo[b]thiophene-2-carboxamide], for which the melting point lay in the range of 199 to 201 °C. Besides, the inhibition at 1 µM at Dyrk1A came to 8%. On Dyrk1B, the inhibition at 1 µM stood at 0%. On Clk1, the inhibition at 1 µM was 26%.
In the same order, the values of `Cc1cc(C)cc(CNC(=O)c2cc3cc(O)ccc3s2)c1` [Compound 19, N-(3,5-Dimethylbenzyl)-5-hydroxybenzo[b]thiophene-2-carboxamide] are 140.2 to 141.8 °C, 22%, 0% and 53%.
Compound `COc1cccc(CNC(=O)c2cc3cc(O)ccc3s2)c1OC` [Compound 20, N-(2,3-Dimethoxybenzyl)-5-hydroxybenzo[b]thiophene-2-carboxamide] showed a melting point of 181.1 to 183.3 °C. The inhibition at 1 µM at Dyrk1A stood at 14%. Also, the inhibition at 1 µM at Dyrk1B is 19%. Moreover, the inhibition at 1 µM at Clk1 is 21%.
In the same order, the values of `COc1ccc(CNC(=O)c2cc3cc(O)ccc3s2)c(OC)c1` [Compound 21, N-(2,4-Dimethoxybenzyl)-5-hydroxybenzo[b]thiophene-2-carboxamide] are 163.3 to 164.5 °C, 9%, 17% and 43%.
`COc1ccc(CNC(=O)c2cc3cc(O)ccc3s2)cc1OC` [Compound 22, N-(3,4-Dimethoxybenzyl)-5-hydroxybenzo[b]thiophene-2-carboxamide] showed a melting point of 188.3 to 190.3 °C. Also, the inhibition at 1 µM on Dyrk1A came out at 8%. Besides, on Dyrk1B, the inhibition at 1 µM amounted to 16%. For the same compound, at Clk1, the inhibition at 1 µM came out at 18%.
For the compound `COc1cc(CNC(=O)c2cc3cc(O)ccc3s2)cc(OC)c1` [Compound 23, N-(3,5-Dimethoxybenzyl)-5-hydroxybenzo[b]thiophene-2-carboxamide], the inhibition at 1 µM stood at 12% on Dyrk1A, 22% at Dyrk1B and 22% at Clk1.
Turning to `O=C(c1cc2cc(O)ccc2s1)N1CCc2ccccc2C1` [Compound 24, (3,4-Dihydroisoquinolin-2(1H)-yl)(5-hydroxybenzo[b]thiophen-2-yl)methanone], the melting point fell in the range of 198.8 to 200.8 °C. Besides, the inhibition at 1 µM at Dyrk1A turned out to be 12%. Besides, the inhibition at 1 µM at Dyrk1B is 21%. Also, the inhibition at 1 µM at Clk1 was determined as 33%.
`O=C(c1cc2cc(O)ccc2s1)N1Cc2ccc(Cl)cc2C1` [Compound 25, (5-Chloroisoindolin-2-yl)(5-hydroxybenzo[b]thiophen-2-yl)methanone] yielded a melting point of 224.9 to 226 °C. On Dyrk1A, the inhibition at 1 µM was 13%. Besides, on Dyrk1B, the inhibition at 1 µM amounted to 24%. At Clk1, the IC50 was 0.608 µM and the inhibition at 1 µM was 62%.
Compound `O=C(NCc1cccnc1)c1cc2cc(O)ccc2s1` [Compound 26, 5-Hydroxy-N-(pyridin-3-ylmethyl)benzo[b]thiophene-2-carboxamide] returned a melting point of 198 to 200.8 °C. Also, at Dyrk1A, the inhibition at 1 µM stood at 34%. In addition, at Dyrk1B, the inhibition at 1 µM was 39%. Further, the inhibition at 1 µM at Clk1 worked out at 47%.
